Data: patent US20260078130A1, “NAMPT MODULATORS, PREPARATIONS, AND USES THEREOF” (SIRONAX LTD., priority 2022, published 2026)

Key:
[1] = biological target: T1, human enzyme NAMPT (full length) (Homo sapiens, UniProt P43490); assay: NMN fluorescence biochemical assay (stimulation of NMN synthesis by NAMPT); details: for EC50: NMN fluorescence assay, purified human NAMPT 100 nM, concentration giving half-maximal activation, read-out: Enzymatic EC50; for Enzymatic Emax: fold change of maximal activation compared to DMSO
T1 construct: human enzyme NAMPT (full length)
T1 sequence (P43490 whole entry): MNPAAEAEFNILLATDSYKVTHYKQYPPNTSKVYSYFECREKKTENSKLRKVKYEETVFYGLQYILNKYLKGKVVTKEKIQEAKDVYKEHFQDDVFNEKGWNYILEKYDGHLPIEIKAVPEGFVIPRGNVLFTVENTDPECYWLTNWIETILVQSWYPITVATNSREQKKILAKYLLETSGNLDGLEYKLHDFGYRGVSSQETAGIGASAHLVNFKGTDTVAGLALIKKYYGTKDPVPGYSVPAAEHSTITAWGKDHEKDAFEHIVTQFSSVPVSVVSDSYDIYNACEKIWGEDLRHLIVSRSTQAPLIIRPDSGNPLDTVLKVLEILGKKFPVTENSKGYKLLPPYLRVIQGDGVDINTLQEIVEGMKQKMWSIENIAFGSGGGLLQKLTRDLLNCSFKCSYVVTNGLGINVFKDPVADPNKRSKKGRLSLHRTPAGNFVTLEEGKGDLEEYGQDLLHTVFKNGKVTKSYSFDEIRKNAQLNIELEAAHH
How it was run: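 Full-length human NAMPT (100 nM) was preincubated 15 min at 37 °C with compound in 50 mM Tris-HCl pH 7.5, 10 mM MgCl2, 2 mM DTT, then reacted 1 h at 37 °C with 50 μM NAM, 100 μM PRPP, 4 mM ATP (stated solution concentrations). NMN was derivatised with acetophenone/KOH then formic acid and read at Ex/Em 382/445 nm; EC50 and Emax (fold over DMSO) reported.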

[2] = tested on: endogenous NAMPT in U2OS cells; assay: Cellular NAD+ modulation assay (NAD/NADH-Glo, U2OS cells); assay type: cell-based; details: Homo sapiens, 24 hours incubation, cellular NAD+; for maximal fold induction: read-out: Cellular Emax
How it was run: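 NAD/NADH-Glo luminescence quantified NAD+ after acid treatment (60 °C, 15 min) and neutralization of DTAB lysates. Beforehand, U2OS cells seeded 16 h earlier received compound concentration series for 24 h at 37 °C. Values given as half-maximal activation concentration (EC50) and maximal fold change versus DMSO (Emax).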

With `Cn1nc(OC(F)F)c(Cl)c1CC1c2ccccc2C(=O)N1Cc1ccc2[nH]nnc2c1` (stereo not shown) [Compound 397, 2-((1H-benzo[d][1,2,3]triazol-5-yl)methyl)-3-((4-chloro-3-(difluoromethoxy)-1-methyl-1H-pyrazol-5-yl)methyl)isoindolin-1-one] the EC50 [1] was < 500 nM, the “Enzymatic Emax” value [1] was “B (3≥B>2)” and the EC50 [2] was < 500 nM. For the same compound, the maximal fold induction [2] was > 1.5.
For `Cn1ncc(Cl)c1CC1c2cc(C3CCOCC3)ccc2C(=O)N1Cc1ccc2[nH]nnc2c1` (stereo not shown) [Compound 398, 2-((1H-benzo[d][1,2,3]triazol-5-yl)methyl)-3-((4-chloro-1-methyl-1H-pyrazol-5-yl)methyl)-5-(tetrahydro-2H-pyran-4-yl)isoindolin-1-one], the EC50 [1] was < 500 nM, the “Enzymatic Emax” value [1] was “A (A>3)” and the EC50 [2] was 500 to 5000 nM. The maximal fold induction [2] was > 1.5.
`Cn1nc(C2CC2)c(Cl)c1CC1c2ccccc2C(=O)N1Cc1ccc2[nH]nnc2c1` (stereo not shown) [Compound 399, 2-((1H-benzo[d][1,2,3]triazol-5-yl)methyl)-3-((4-chloro-3-cyclopropyl-1-methyl-1H-pyrazol-5-yl)methyl)isoindolin-1-one] was tested, and the EC50 [1] was < 500 nM, the “Enzymatic Emax” value [1] was “B (3≥B>2)” and the EC50 [2] was < 500 nM. For the same compound, the maximal fold induction [2] was > 1.5.
`O=C1c2ccccc2C(Cc2ncccc2Br)N1CC1CCc2[nH]c(=O)oc2C1` (stereo not shown) [Compound 400, 6-((1-((3-bromopyridin-2-yl)methyl)-3-oxoisoindolin-2-yl)methyl)-4,5,6,7-tetrahydrobenzo[d]oxazol-2(3H)-one] was tested, and the EC50 [1] was 500 to 5000 nM, the “Enzymatic Emax” value [1] was “B (3≥B>2)” and the EC50 [2] was 500 to 5000 nM. The maximal fold induction [2] was > 1.5.
In the case of `NC(=O)C1CC(CN2C(=O)c3ccccc3C2Cc2ncccc2Br)C1` (stereo not shown) [Compound 404, 3-((1-((3-bromopyridin-2-yl)methyl)-3-oxoisoindolin-2-yl)methyl)cyclobutane-1-carboxamide], the EC50 [1] is reported as < 500 nM, the “Enzymatic Emax” value [1] is reported as “B (3≥B>2)” and the EC50 [2] is reported as < 500 nM. The maximal fold induction [2] was > 1.5.
With `Cn1ncc(Cl)c1C[C@@H]1c2ccccc2C(=O)N1C[C@H]1C[C@]2(CNC(=O)O2)C1` [Compound 405, (2s,4S)-2-(((R)-1-((4-chloro-1-methyl-1H-pyrazol-5-yl)methyl)-3-oxoisoindolin-2-yl)methyl)-5-oxa-7-azaspiro[3.4]octan-6-one] the EC50 [1] was 500 to 5000 nM, the “Enzymatic Emax” value [1] was “C (2≥C)” and the EC50 [2] was 5000 to 50000 nM. The maximal fold induction [2] was 1.2 to 1.5.
For `Cn1ncc(Cl)c1C[C@H]1c2ccccc2C(=O)N1C[C@H]1C[C@]2(CNC(=O)O2)C1` [Compound 406, (2s,4R)-2-(((S)-1-((4-chloro-1-methyl-1H-pyrazol-5-yl)methyl)-3-oxoisoindolin-2-yl)methyl)-5-oxa-7-azaspiro[3.4]octan-6-one], the EC50 [1] was < 500 nM, the “Enzymatic Emax” value [1] was “B (3≥B>2)” and the EC50 [2] was < 500 nM. The maximal fold induction [2] was > 1.5.
`Cc1ccnc(C#N)c1CC1c2ccccc2C(=O)N1C/C=C/c1c[nH]nn1` (stereo not shown) [Compound 409, (E)-3-((2-(3-(1H-1,2,3-triazol-4-yl)allyl)-3-oxoisoindolin-1-yl)methyl)-4-methylpicolinonitrile] was tested, and the EC50 [1] was < 500 nM, the “Enzymatic Emax” value [1] was “B (3≥B>2)” and the EC50 [2] was < 500 nM. The maximal fold induction [2] was > 1.5.
With `N#CCn1cc(Cl)c(CC2c3ccccc3C(=O)N2Cc2ccc3[nH]nnc3c2)n1` (stereo not shown) [Compound 410, 2-(3-((2-((1H-benzo[d][1,2,3]triazol-5-yl)methyl)-3-oxoisoindolin-1-yl)methyl)-4-chloro-1H-pyrazol-1-yl)acetonitrile] the EC50 [1] was < 500 nM, the “Enzymatic Emax” value [1] was “B (3≥B>2)” and the EC50 [2] was 500 to 5000 nM. For the same compound, the maximal fold induction [2] was > 1.5.
`CC(C)(O)Cn1cc(Cl)c(CC2c3ccccc3C(=O)N2Cc2ccc3[nH]nnc3c2)n1` (stereo not shown) [Compound 411, 2-((1H-benzo[d][1,2,3]triazol-5-yl)methyl)-3-((4-chloro-1-(2-hydroxy-2-methylpropyl)-1H-pyrazol-3-yl)methyl)isoindolin-1-one] was tested, and the EC50 [1] was < 500 nM, the “Enzymatic Emax” value [1] was “B (3≥B>2)” and the EC50 [2] was < 500 nM. For the same compound, the maximal fold induction [2] was > 1.5.
With `O=C1c2ccccc2C(Cc2nn(C3CC4(COC4)C3)cc2Cl)N1Cc1ccc2[nH]nnc2c1` (stereo not shown) [Compound 412, 2-((1H-benzo[d][1,2,3]triazol-5-yl)methyl)-3-((4-chloro-1-(2-oxaspiro[3.3]heptan-6-yl)-1H-pyrazol-3-yl)methyl)isoindolin-1-one] the EC50 [1] was < 500 nM, the “Enzymatic Emax” value [1] was “B (3≥B>2)” and the EC50 [2] was 5000 to 50000 nM. The maximal fold induction [2] was 1.2 to 1.5.
In the case of `O=C1c2ccccc2C(Cc2nn(C3CNC3)cc2Cl)N1Cc1ccc2[nH]nnc2c1` (stereo not shown) [Compound 413, 2-((1H-benzo[d][1,2,3]triazol-5-yl)methyl)-3-((1-(azetidin-3-yl)-4-chloro-1H-pyrazol-3-yl)methyl)isoindolin-1-one], the EC50 [1] is reported as < 500 nM, the “Enzymatic Emax” value [1] is reported as “B (3≥B>2)” and the EC50 [2] is reported as 500 to 5000 nM. For the same compound, the maximal fold induction [2] was > 1.5.
In the case of `COc1ccc2c(c1)C(=O)N(Cc1ccc3[nH]nnc3c1)C2Cc1c(Cl)cnn1C` (stereo not shown) [Compound 414, 2-((1H-benzo[d][1,2,3]triazol-5-yl)methyl)-3-((4-chloro-1-methyl-1H-pyrazol-5-yl)methyl)-6-methoxyisoindolin-1-one], the EC50 [1] is reported as 500 to 5000 nM, the “Enzymatic Emax” value [1] is reported as “A (A>3)” and the EC50 [2] is reported as < 500 nM. The maximal fold induction [2] was > 1.5.
For `COc1ccc(CN2C(=O)c3ccccc3C2Cc2ncccc2Br)cc1` (stereo not shown) [Compound 415, 3-((3-bromopyridin-2-yl)methyl)-2-(4-methoxybenzyl)isoindolin-1-one], the EC50 [1] was 500 to 5000 nM, the “Enzymatic Emax” value [1] was “B (3≥B>2)” and the EC50 [2] was < 500 nM. For the same compound, the maximal fold induction [2] was 1.2 to 1.5.
With `C/C(=C\c1c[nH]nn1)CN1C(=O)c2ccccc2C1Cc1ncccc1Br` (stereo not shown) [Compound 416, (E)-3-((3-bromopyridin-2-yl)methyl)-2-(2-methyl-3-(1H-1,2,3-triazol-4-yl)allyl)isoindolin-1-one] the EC50 [1] was < 500 nM, the “Enzymatic Emax” value [1] was “B (3≥B>2)” and the EC50 [2] was < 500 nM. For the same compound, the maximal fold induction [2] was > 1.5.
In the case of `O=C1c2ccccc2C(Cc2ncccc2Br)N1CC#Cc1cn[nH]n1` (stereo not shown) [Compound 417, 2-(3-(2H-1,2,3-triazol-4-yl)prop-2-yn-1-yl)-3-((3-bromopyridin-2-yl)methyl) isoindolin-1-one], the EC50 [1] is reported as < 500 nM, the “Enzymatic Emax” value [1] is reported as “B (3≥B>2)” and the EC50 [2] is reported as < 500 nM. For the same compound, the maximal fold induction [2] was > 1.5.
With `O=C1c2ccccc2C(Cc2ncsc2Cl)N1Cc1ccc2[nH]nnc2c1` (stereo not shown) [Compound 418, 2-((1H-benzo[d][1,2,3]triazol-5-yl)methyl)-3-((5-chlorothiazol-4-yl)methyl)isoindolin-1-one] the EC50 [1] was < 500 nM, the “Enzymatic Emax” value [1] was “B (3≥B>2)” and the EC50 [2] was < 500 nM. The maximal fold induction [2] was > 1.5.
For `Cn1ncc(Cl)c1CC1(C)c2cc(Br)ccc2C(=O)N1Cc1ccc2[nH]c(=O)oc2c1` (stereo not shown) [Compound 419, 6-((6-bromo-1-((4-chloro-1-methyl-1H-pyrazol-5-yl)methyl)-1-methyl-3-oxoisoindolin-2-yl)methyl)benzo[d]oxazol-2(3H)-one], the EC50 [1] was < 500 nM, the “Enzymatic Emax” value [1] was “A (A>3)” and the EC50 [2] was < 500 nM. The maximal fold induction [2] was > 1.5.
For `CN(C)c1nn(C)c(CC2c3ccccc3C(=O)N2Cc2ccc3[nH]nnc3c2)c1Cl` (stereo not shown) [Compound 420, 2-((1H-benzo[d][1,2,3]triazol-5-yl)methyl)-3-((4-chloro-3-(dimethylamino)-1-methyl-1H-pyrazol-5-yl)methyl)isoindolin-1-one], the EC50 [1] was < 500 nM, the “Enzymatic Emax” value [1] was “B (3≥B>2)” and the EC50 [2] was < 500 nM. For the same compound, the maximal fold induction [2] was > 1.5.
